This assay relates to T1, recombinant CGTase MY20 (my20).
T1 construct: codon-optimized my20 gene in pET-24a(+), E. coli BL21(DE3), intracellular, Ni-NTA purified
As to the kind of experiment: AA-2G synthesis, HPLC […] nm, ping-pong fit. Type of assay: biochemical, metagenome: marine microorganisms, Mariana Trench. The following applies: pH 5, 40°C.

In the case of `O=C1O[C@H]([C@@H](O)CO)C(O)=C1O` [L-ascorbic acid], for the setting “glucosyl acceptor, co-substrate beta-cyclodextrin 0.5-25 g/L”, the KmA is given as 9.2 ± 0.06 g/L.
Regarding `OC[C@H]1O[C@@H]2O[C@H]3[C@H](O)[C@@H](O)[C@@H](O[C@H]4[C@H](O)[C@@H](O)[C@@H](O[C@H]5[C@H](O)[C@@H](O)[C@@H](O[C@H]6[C@H](O)[C@@H](O)[C@@H](O[C@H]7[C@H](O)[C@@H](O)[C@@H](O[C@H]8[C@H](O)[C@@H](O)[C@@H](O[C@H]1[C@H](O)[C@H]2O)O[C@@H]8CO)O[C@@H]7CO)O[C@@H]6CO)O[C@@H]5CO)O[C@@H]4CO)O[C@@H]3CO` [β-CD], where the note is “glucosyl donor, co-substrate L-ascorbic acid 1-50 g/L”, the KmB was found to be 6.9 ± 0.04 g/L.

Source of the values: publication PMC8195388, “Heterologous Expression of Cyclodextrin Glycosyltransferase my20 in Escherichia coli and Its Application in 2-O-α-D-Glucopyranosyl-L-Ascorbic Acid Production” (Frontiers in Microbiology, 2021).
